Measured values as given in US20220054432A1, “COMPOSITION FOR INCREASING RETENTION OF CAROTENOID IN BLOOD” (ENEOS Corporation, priority 2018, published 2022).
Where two headings read alike, the source gives them in different places.

Tests used:
[1] = Retention in blood: carotenoid concentration in serum of cynomolgus monkeys (Test Example 3); assay type: in vivo; settings: cynomolgus monkey, 50 mg/kg intragastric once daily for 10 days, serum 4 hours after last administration
Procedure: As experimental animals, cynomolgus monkeys were used. Two cynomolgus monkeys were used, and an adonixanthin dosing solution was administered to one monkey (adonixanthin-administering monkey), while an astaxanthin dosing solution was administered to the other monkey (astaxanthin-administering monkey). As the dosing solutions, the dosing solutions obtained in Preparation Example 2 were used, and the dosing solutions at a dose such that the dose of adonixanthin or astaxanthin was 50 mg/kg body weight were administered once daily for 10 days (the day of initiation of administration of the dosing solutions was defined as day 1). […] The dose in each administration was calculated based on the latest body weight at each administration time point (the body weight was measured on the day of initiation of acclimation, the day of end of acclimation, the day of initiation of administration, and before administration on day 8 of administration using an electric balance (HP-40K or GP-40K, both of which are manufactured by A&D Company, Limited)). […] Regarding each serum 4 hours after the last administration of the dosing solutions, each of the concentration of adonixanthin in serum collected from the adonixanthin-administering monkey and the concentration of astaxanthin in serum collected from the astaxanthin-administering monkey was measured. […]

[2] = Transfer into each organ: carotenoid concentration in organs of mice (Test Example 1); assay type: in vivo, ICR strain mice; settings: 50 mg/kg orally once daily for 10 days; for concentration at 10 days: ICR, mouse, po, after last administration, mean
Description: Adonixanthin was used as an asymmetric carotenoid, and astaxanthin was used as a symmetric carotenoid. As experimental animals, ICR strain mice were used. Fourteen (14) mice were used, and 4 mice each were assigned to the adonixanthin-administration group and the astaxanthin-administration group, and 6 mice were assigned to the control administration group. In grouping, each group was constituted so that the mean body weight in each group was as uniform as possible based on the body weight on the day before initiation of administration.
To each experimental group, each of adonixanthin, astaxanthin, and olive oil (product number 150-00276, manufactured by Wako Pure Chemical Industries, Ltd.) was orally administered. In the adonixanthin-administration group and the astaxanthin-administration group, adonixanthin and astaxanthin at a volume of 50 mg/kg body weight were orally administered once daily for 10 days (the day of initiation of administration of the dosing substances was defined as day 1) using a flexible stomach tube. In the control administration group, olive oil at a volume of 0.05 mL/kg body weight was orally administered once daily for 10 days using a flexible stomach tube.
During the administration period, the mice were fed ad libitum a pellet (CE-2, manufactured by CLEA Japan, Inc.) and tap water, and maintained on a 12-h light/dark cycle, at 23±3° C., with a relative humidity of 50±20%.
After blood collection after the last administration, the whole body was perfused with a heparinized lactated Ringer's solution under isoflurane anesthesia, followed by collection of the retina, the heart, the lung, the spleen, the liver, and the kidney. The collected organs were immediately frozen with liquid nitrogen, and were stored at −80° C.
Each of the concentration of adonixanthin in each organ collected from the adonixanthin-administration group (concentration relative to the weight of each organ) and the concentration of astaxanthin in each organ collected from the astaxanthin-administration group (concentration relative to the weight of each organ) was measured. Specifically, each organ was homogenized, and extraction was repeated with acetone until no color occurred. Then, filtration through a filter was performed to evaporate acetone, and diethyl ether:hexane (2:8, v/v) was added to the solution to extract a carotenoid. Furthermore, evaporation to dryness was performed, and the residue was dissolved in acetone:hexane (2:8, v/v) and subjected to HPLC. As the HPLC device, a Hitachi L-6000 intelligent pump and an L-4250 UV-VIS detector were used. The measurement wavelength was 450 nm, and a column of 5 μm Cosmosil 5SL-II (inner diameter of 250×4.6 mm) (manufactured by Nacalai Tesque, Inc.) was used. As the mobile phase, acetone:hexane (2:8, v/v) was used, and measurement was performed at a flow rate of 1.0 mL/min.
In HPLC, the concentration of astaxanthin was measured as a concentration of each of the cis isomer and the trans isomer.
Each of the concentration of adonixanthin in each organ collected from the adonixanthin-administration group and the concentration of astaxanthin in each organ collected from the astaxanthin-administration group is shown in Table 1. The measured value was expressed as mean. From each organ collected from the control administration group, neither adonixanthin nor astaxanthin were detected.

[3] = heart, read-out: Concentration in organ: Heart
[4] = kidney, read-out: Concentration in organ: Kidney
[5] = liver, read-out: Concentration in organ: Liver
[6] = lung, read-out: Concentration in organ: Lung
[7] = spleen, read-out: Concentration in organ: Spleen

concentration at 10 days [2, 3] [ng/g] | concentration at 10 days [2, 4] [ng/g] | concentration at 10 days [2, 5] [ng/g] | concentration at 10 days [2, 6] [ng/g] | concentration at 10 days [2, 7] [ng/g] | Compound | Concentration in serum, FIG. 3 [1] | Transfer into and retention in each organ (summary of Table 1) [2]
141 | 774 | 1930 | 1940 | 277 | CC1=C(/C=C/C(C)=C/C=C/C(C)=C/C=C/C=C(C)/C=C/C=C(C)/C=C/C2=C(C)C(=O)C(O)CC2(C)C)C(C)(C)CC(O)C1 (stereo not drawn) [adonixanthin, 3,3′-dihydroxy-β,β-caroten-4-one] | especially likely to be retained in blood | especially likely to be transferred into each organ and retained therein
124 | 84.6 | 109 | 106 | 87.8 | CC1=C(/C=C/C(C)=C/C=C/C(C)=C/C=C/C=C(C)/C=C/C=C(C)/C=C/C2=C(C)C(=O)C(O)CC2(C)C)C(C)(C)CC(O)C1=O (stereo not drawn) [astaxanthin, 3,3′-dihydroxy-β,β-carotene-4,4′-dione] | exist in serum at a high concentration | exist in each organ at a high concentration
